# In the supplement of paper PMC11061612:
# What was measured:
# Assay in all cases: combination Emax (second highest fraction inhibited in the dose matrix, 72 h); higher = more inhibition; extreme values may be limits of the assay
# [1] = test system: 8505C (Thyroid Gland Carcinoma)
# Procedure, shortened: (§1)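 Cell lines grown in DMEM/F12 or RPMI with 10% FBS were plated in 1536-well plates and held 24 hours at 37°C, 5% CO2 before 72 hours of exposure to two-drug dose matrices, with DMSO typically at 0.2%. CellTiter-Glo 2.0 luminescence gave viability, which was converted to inhibition. Vehicle wells were set to 0 and blank wells to 1. Combination Emax is the second-highest inhibition in the matrix, and Bliss excess is the observed combination effect minus the expected EA + EB − EA·EB, where EA and EB are the single-agent effects.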
# [2] = test system: COR-L279 (Small Cell Lung Carcinoma)
# Procedure, shortened: as §1
# [3] = test system: CW-2 (Colorectal Carcinoma)
# Procedure, shortened: as §1
# [4] = test system: DAN-G (Pancreatic Carcinoma)
# Procedure, shortened: as §1
# G-361 (Melanoma) = test system: G-361 (Melanoma)
# Procedure, shortened: as §1
# [5] = test system: KU812 (Chronic Myelogenous Leukemia)
# Procedure, shortened: as §1
# [6] = test system: KY821 (Acute Myeloid Leukemia)
# Procedure, shortened: as §1
# [7] = test system: MN-60 (B-Lymphoblastic Leukemia)
# Procedure, shortened: as §1
# [8] = test system: MOG-G-CCM (Low Grade Glioma)
# Procedure, shortened: as §1
# [9] = test system: NCCIT (Other Solid Carcinomas)
# Procedure, shortened: as §1
# [10] = test system: NCI-H3122 (Lung Adenocarcinoma)
# Procedure, shortened: as §1
# [11] = test system: NCI-H520 (Squamous Cell Lung Carcinoma)
# Procedure, shortened: as §1
# [12] = test system: NCI-H526 (Small Cell Lung Carcinoma)
# Procedure, shortened: as §1
# [13] = test system: NCI-H929 (Plasma Cell Myeloma)
# Procedure, shortened: as §1
# [14] = test system: PC-3 (Prostate Carcinoma)
# Procedure, shortened: as §1
# RD (Rhabdomyosarcoma) = test system: RD (Rhabdomyosarcoma)
# Procedure, shortened: as §1
# [15] = test system: SNU-398 (Hepatocellular Carcinoma)
# Procedure, shortened: as §1
# [16] = test system: SU-DHL-5 (B-Cell Non-Hodgkin's Lymphoma)
# Procedure, shortened: as §1
# [17] = test system: SUP-B15 (B-Lymphoblastic Leukemia)
# Procedure, shortened: as §1
# [18] = test system: T-T (Esophageal Squamous Cell Carcinoma)
# Procedure, shortened: as §1
SMILES,combination Emax [1],combination Emax [2],combination Emax [3],combination Emax [4],combination Emax (G-361 (Melanoma)),combination Emax [5],combination Emax [6],combination Emax [7],combination Emax [8],combination Emax [9],combination Emax [10],combination Emax [11],combination Emax [12],combination Emax [13],combination Emax [14],combination Emax (RD (Rhabdomyosarcoma)),combination Emax [15],combination Emax [16],combination Emax [17],combination Emax [18]
"CC(=O)Nc1cccc(-n2c(=O)n(C3CC3)c(=O)c3c(Nc4ccc(I)cc4F)n(C)c(=O)c(C)c32)c1 [Trametinib] + Cc1nc(-c2cn3c(n2)-c2ccc(-c4cnn(C(C)(C)C(N)=O)c4)cc2OCC3)n(C(C)C)n1 [Taselisib] (first compound max 1 µM, 7x7, partner max 10 µM)",0.496,0.661,0.565,0.999,0.996,0.921,0.97,0.42,0.548,0.73,0.99,0.65,0.304,1,0.503,0.972,0.56,1,1,0.903
"Cn1cnc2c(F)c(Nc3ccc(Br)cc3Cl)c(C(=O)NOCCO)cc21 [Selumetinib] + CCN(CCO)CCCOc1ccc2c(Nc3cc(CC(=O)Nc4cccc(F)c4)[nH]n3)ncnc2c1 [AZD2811] (first compound max 10 µM, 7x7, partner max 1 µM)",0.388,0.765,0.349,0.519,0.798,0.951,0.843,0.342,0.457,0.109,0.653,0.17,0.32,0.698,0.141,0.297,0.662,0.915,1,0.269
"CN(CCO)CC[C@H](CSc1ccccc1)Nc1ccc(S(=O)(=O)NC(=O)c2ccc(N3CCC([C@@H](O)c4ccccc4-c4ccc(Cl)cc4)CC3)cc2)cc1S(=O)(=O)C(F)(F)F [AZD4320] + Cn1cnc2c(F)c(Nc3ccc(Br)cc3Cl)c(C(=O)NOCCO)cc21 [Selumetinib] (first compound max 1 µM, 7x7, partner max 3 µM)",0.475,0.997,0.216,0.413,0.849,0.966,1,0.321,0.576,0.224,0.538,0.203,0.984,0.631,0.352,0.904,0.38,0.962,1,0.325
"C=CCn1c(=O)c2cnc(Nc3ccc(N4CCN(C)CC4)cc3)nc2n1-c1cccc(C(C)(C)O)n1 [AZD1775] + C1CN(CCC1(C(=O)N[C@@H](CCO)C2=CC=C(C=C2)Cl)N)C3=NC=NC4=C3C=CN4 [Capivasertib] (first compound max 3 µM, partner max 3 µM)",0.741,0.818,0.522,0.848,0.724,0.912,0.994,0.555,0.748,0.963,0.622,0.795,0.907,0.981,0.394,0.797,0.786,0.99,0.954,0.618
"CS(=O)(=O)CCNCc1ccc(-c2ccc3ncnc(Nc4ccc(OCc5cccc(F)c5)c(Cl)c4)c3c2)o1 [Lapatinib] + C[C@@H](Oc1cc(-c2cnn(C3CCNCC3)c2)cnc1N)c1c(Cl)ccc(F)c1Cl [Crizotinib] (first compound max 10 µM, 7x7, partner max 10 µM)",0.721,0.953,0.708,0.991,0.972,0.999,0.986,0.834,0.745,0.599,0.938,0.659,0.732,0.97,0.494,0.891,0.77,1,0.963,0.938
"CCN(CCO)CCCOc1ccc2c(Nc3cc(CC(=O)Nc4cccc(F)c4)[nH]n3)ncnc2c1 [AZD2811] + C[C@@H]1COCCN1C2=NC(=NC(=C2)C3(CC3)[S@](=N)(=O)C)C4=C5C=CNC5=NC=C4 [AZD6738] (first compound max 1 µM, 7x7, partner max 10 µM)",0.278,0.832,0.524,0.648,0.441,0.799,0.968,0.477,0.492,0.561,0.621,0.663,0.634,0.641,0.431,0.252,0.485,1,0.914,0.42
